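These data come from cells grown in 96-well plates and exposed to compound for 48 hours at five concentrations. TGI: concentration producing complete growth inhibition.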
Experiments:
Assay in all cases: inhibition of tumour cell growth, NCI panel, 48 h
LOX IMVI melanoma = test system: LOX IMVI melanoma
HOP-92 NSCLC = test system: HOP-92 NSCLC
NCI/ADR-RES ovarian = test system: NCI/ADR-RES ovarian
SK-MEL-2 melanoma = test system: SK-MEL-2 melanoma
NCI-H226 lung = test system: NCI-H226 lung
RXF 393 renal = test system: RXF 393 renal
M14 melanoma = test system: M14 melanoma
A498 renal = test system: A498 renal
EKVX NSCLC = test system: EKVX NSCLC
MDA-N = test system: MDA-N

SMILES: Nc1c(F)c(F)c2c(c1F)N(CCCCCl)c1ccccc1S2
- TGI (LOX IMVI melanoma): > 100 µM
- TGI (HOP-92 NSCLC): > 100 µM
- TGI (NCI/ADR-RES ovarian): > 100 µM
- TGI (SK-MEL-2 melanoma): > 100 µM
- TGI (NCI-H226 lung): > 100 µM
- TGI (RXF 393 renal): > 100 µM
- TGI (M14 melanoma): > 100 µM
- TGI (A498 renal): > 100 µM

SMILES: N#CCCC(C#N)(C#N)CCC#N
- TGI (LOX IMVI melanoma): > 100 µM
- TGI (EKVX NSCLC): > 100 µM
- TGI (NCI-H226 lung): > 100 µM
- TGI (M14 melanoma): > 100 µM

SMILES: CCOC(=O)/C(=C\c1c[nH]c2ccccc12)P(=O)(OCC)OCC
- TGI (LOX IMVI melanoma): 40.3 µM
- TGI (HOP-92 NSCLC): 77.1 µM
- TGI (NCI/ADR-RES ovarian): > 100 µM
- TGI (MDA-N): > 100 µM
- TGI (EKVX NSCLC): > 100 µM
- TGI (NCI-H226 lung): 77.5 µM
- TGI (RXF 393 renal): > 100 µM
- TGI (M14 melanoma): > 100 µM
- TGI (A498 renal): 76.1 µM

SMILES: CC(C)N(C(C)C)S(=O)(=O)CC12CCC(C/C1=N\O)C2 (centres undefined)
- TGI (LOX IMVI melanoma): > 100 µM
- TGI (NCI/ADR-RES ovarian): > 100 µM
- TGI (MDA-N): > 100 µM
- TGI (EKVX NSCLC): > 100 µM
- TGI (SK-MEL-2 melanoma): > 100 µM
- TGI (NCI-H226 lung): > 100 µM
- TGI (RXF 393 renal): > 100 µM
- TGI (M14 melanoma): > 100 µM

SMILES: COP12(OC)NC(=O)OC1(C(F)(F)F)c1ccccc1O2 (centres undefined)
- TGI (LOX IMVI melanoma): > 100 µM
- TGI (SK-MEL-2 melanoma): > 100 µM
- TGI (NCI-H226 lung): > 100 µM
- TGI (RXF 393 renal): > 100 µM
- TGI (M14 melanoma): > 100 µM

SMILES: CCOC(=O)/C(C1=NCCN1C)=C(\O)c1ccccc1
- TGI (LOX IMVI melanoma): > 100 µM
- TGI (EKVX NSCLC): > 100 µM
- TGI (SK-MEL-2 melanoma): > 100 µM
- TGI (NCI-H226 lung): > 100 µM
- TGI (RXF 393 renal): > 100 µM
- TGI (M14 melanoma): > 100 µM

SMILES: N#Cc1ccc(C2OCC3CC=CCC3CO2)cc1 (centres undefined)
- TGI (LOX IMVI melanoma): > 100 µM
- TGI (EKVX NSCLC): > 100 µM
- TGI (SK-MEL-2 melanoma): > 100 µM
- TGI (NCI-H226 lung): > 100 µM
- TGI (RXF 393 renal): > 100 µM
- TGI (M14 melanoma): > 100 µM

SMILES: c1cc2c(cc1C1OCC3C(c4ccc5c(c4)OCO5)OCC13)OCO2 (centres undefined)
- TGI (LOX IMVI melanoma): > 100 µM
- TGI (HOP-92 NSCLC): > 100 µM
- TGI (EKVX NSCLC): > 100 µM
- TGI (SK-MEL-2 melanoma): > 100 µM
- TGI (NCI-H226 lung): > 100 µM
- TGI (RXF 393 renal): > 100 µM
- TGI (M14 melanoma): > 100 µM
- TGI (A498 renal): > 100 µM

SMILES: COc1ccc(/C=C2/SC(=Nc3ccccc3)N(NC(=O)Cc3ccccc3)C2=O)cc1
- TGI (HOP-92 NSCLC): > 100 µM
- TGI (NCI/ADR-RES ovarian): > 100 µM
- TGI (MDA-N): > 100 µM
- TGI (EKVX NSCLC): > 100 µM
- TGI (SK-MEL-2 melanoma): > 100 µM
- TGI (NCI-H226 lung): > 100 µM
- TGI (RXF 393 renal): > 100 µM
- TGI (M14 melanoma): > 100 µM
- TGI (A498 renal): > 100 µM

SMILES: O=C(c1ccccc1)c1ccc(N2C(=O)/C(=C/c3ccccc3S)N=C2c2ccccc2)c(N2C(=O)/C(=C/c3ccccc3S)N=C2c2ccccc2)c1
- TGI (LOX IMVI melanoma): 62.9 µM
- TGI (HOP-92 NSCLC): > 100 µM
- TGI (NCI/ADR-RES ovarian): > 100 µM
- TGI (MDA-N): > 100 µM
- TGI (EKVX NSCLC): > 100 µM
- TGI (SK-MEL-2 melanoma): 57.3 µM
- TGI (M14 melanoma): > 100 µM
- TGI (A498 renal): > 100 µM

SMILES: CN1CCS(=O)(=O)NC(Cc2ccccc2)C(=O)N2CCCC2C1=O (centres undefined)
- TGI (LOX IMVI melanoma): > 100 µM
- TGI (EKVX NSCLC): > 100 µM
- TGI (SK-MEL-2 melanoma): > 100 µM
- TGI (NCI-H226 lung): > 100 µM
- TGI (A498 renal): > 100 µM

SMILES: COc1ccccc1N1CCN(S(=O)(=O)c2ccc(Cl)cc2)C1=N
- TGI (NCI/ADR-RES ovarian): > 100 µM
- TGI (MDA-N): > 100 µM
- TGI (EKVX NSCLC): > 100 µM
- TGI (SK-MEL-2 melanoma): > 100 µM
- TGI (RXF 393 renal): > 100 µM
- TGI (M14 melanoma): > 100 µM
- TGI (A498 renal): > 100 µM

SMILES: C/C(=C\[Si](C)(C)c1ccco1)C(C)(O)[C@H](C)O (some centres undefined)
- TGI (LOX IMVI melanoma): > 100 µM
- TGI (HOP-92 NSCLC): > 100 µM
- TGI (NCI/ADR-RES ovarian): > 100 µM
- TGI (MDA-N): > 100 µM
- TGI (EKVX NSCLC): > 100 µM
- TGI (SK-MEL-2 melanoma): > 100 µM
- TGI (NCI-H226 lung): > 100 µM
- TGI (M14 melanoma): > 100 µM
- TGI (A498 renal): > 100 µM

SMILES: COc1cc2ccnc(C#N)c2cc1OCc1ccccc1
- TGI (EKVX NSCLC): > 100 µM
- TGI (SK-MEL-2 melanoma): > 100 µM
- TGI (M14 melanoma): > 100 µM
- TGI (A498 renal): > 100 µM

SMILES: c1ccc2c(c1)CCN1CCc3ccccc3C1C2 (centres undefined)
- TGI (LOX IMVI melanoma): > 100 µM
- TGI (HOP-92 NSCLC): > 100 µM
- TGI (NCI/ADR-RES ovarian): > 100 µM
- TGI (MDA-N): > 100 µM
- TGI (EKVX NSCLC): > 100 µM
- TGI (SK-MEL-2 melanoma): > 100 µM
- TGI (NCI-H226 lung): 93.1 µM
- TGI (M14 melanoma): 82.1 µM
- TGI (A498 renal): > 100 µM

SMILES: N#CCCC1(CCC#N)S(=O)(=O)OCCOS1(=O)=O
- TGI (LOX IMVI melanoma): > 100 µM
- TGI (NCI/ADR-RES ovarian): > 100 µM
- TGI (MDA-N): > 100 µM
- TGI (EKVX NSCLC): > 100 µM
- TGI (SK-MEL-2 melanoma): > 100 µM
- TGI (NCI-H226 lung): > 100 µM
- TGI (RXF 393 renal): > 100 µM
- TGI (M14 melanoma): > 100 µM

SMILES: CCC1(c2ccc(OC)c(OC)c2)CCN(S(=O)(=O)c2ccc(C)cc2)C1 (centres undefined)
- TGI (LOX IMVI melanoma): > 100 µM
- TGI (NCI/ADR-RES ovarian): > 100 µM
- TGI (MDA-N): > 100 µM
- TGI (EKVX NSCLC): > 100 µM
- TGI (SK-MEL-2 melanoma): > 100 µM
- TGI (NCI-H226 lung): > 100 µM
- TGI (RXF 393 renal): > 100 µM
- TGI (M14 melanoma): > 100 µM

SMILES: COc1cc2c(cc1NC(=O)c1ccccc1)c1c(n2S(=O)(=O)c2ccccc2)CCN(S(=O)(=O)c2ccccc2)C1
- TGI (LOX IMVI melanoma): > 100 µM
- TGI (HOP-92 NSCLC): > 100 µM
- TGI (NCI/ADR-RES ovarian): > 100 µM
- TGI (SK-MEL-2 melanoma): > 100 µM
- TGI (NCI-H226 lung): > 100 µM
- TGI (RXF 393 renal): > 100 µM
- TGI (M14 melanoma): > 100 µM
- TGI (A498 renal): > 100 µM

SMILES: CN1C(=O)C(=Cc2ccc(Br)cc2)C(=O)N(C)C1=O
- TGI (LOX IMVI melanoma): > 100 µM
- TGI (HOP-92 NSCLC): > 100 µM
- TGI (NCI/ADR-RES ovarian): > 100 µM
- TGI (EKVX NSCLC): > 100 µM
- TGI (SK-MEL-2 melanoma): > 100 µM
- TGI (NCI-H226 lung): > 100 µM
- TGI (RXF 393 renal): > 100 µM
- TGI (M14 melanoma): > 100 µM
- TGI (A498 renal): > 100 µM

SMILES: Cc1nn(CNc2ccc(F)c(Cl)c2)c(=S)n1/N=C/c1ccc(-c2ccc(Cl)cc2Cl)o1
- TGI (LOX IMVI melanoma): 44.9 µM
- TGI (NCI/ADR-RES ovarian): 44.5 µM
- TGI (MDA-N): 33.5 µM
- TGI (EKVX NSCLC): 42.6 µM
- TGI (SK-MEL-2 melanoma): 41.3 µM
- TGI (NCI-H226 lung): 46.8 µM
- TGI (RXF 393 renal): 34.3 µM
- TGI (M14 melanoma): 36.9 µM
- TGI (A498 renal): 30.3 µM

SMILES: CCOC(=O)/C=C(/C(=O)OCC)n1ccc(=O)n(Cc2cn(CCCCOC(C)=O)nn2)c1=O
- TGI (LOX IMVI melanoma): > 100 µM
- TGI (HOP-92 NSCLC): 20.6 µM
- TGI (NCI/ADR-RES ovarian): > 100 µM
- TGI (MDA-N): > 100 µM
- TGI (EKVX NSCLC): > 100 µM
- TGI (SK-MEL-2 melanoma): > 100 µM
- TGI (NCI-H226 lung): > 100 µM
- TGI (RXF 393 renal): > 100 µM

SMILES: COc1ccc2c(O)c1-c1c(OC)ccc(c1O)SSc1ccc(OC)c(c1O)-c1c(OC)ccc(c1O)SS2
- TGI (LOX IMVI melanoma): > 100 µM
- TGI (HOP-92 NSCLC): 90.1 µM
- TGI (MDA-N): > 100 µM
- TGI (EKVX NSCLC): 44 µM
- TGI (SK-MEL-2 melanoma): > 100 µM
- TGI (NCI-H226 lung): > 100 µM
- TGI (RXF 393 renal): 60 µM
- TGI (M14 melanoma): > 100 µM
- TGI (A498 renal): > 100 µM

SMILES: CC(=O)NC1C(OCc2ccccc2)OC(CO)C(O)C1OCC(=O)NC(C(=O)NC(CCC(=O)NCCCCCC(=O)Nc1ccc2c(c1)CN1C(=O)c3ccccc3C1=N2)C(N)=O)C(C)C (centres undefined)
- TGI (LOX IMVI melanoma): > 100 µM
- TGI (HOP-92 NSCLC): > 100 µM
- TGI (NCI/ADR-RES ovarian): > 100 µM
- TGI (MDA-N): > 100 µM
- TGI (EKVX NSCLC): > 100 µM
- TGI (SK-MEL-2 melanoma): 64.8 µM
- TGI (RXF 393 renal): 45 µM
- TGI (M14 melanoma): > 100 µM
- TGI (A498 renal): 73.7 µM

SMILES: O=[N+]([O-])C(C(Cl)=C(Cl)Cl)=C(N1CCCCC1)N1CCCCC1
- TGI (LOX IMVI melanoma): > 100 µM
- TGI (NCI/ADR-RES ovarian): > 100 µM
- TGI (MDA-N): > 100 µM
- TGI (EKVX NSCLC): > 100 µM
- TGI (NCI-H226 lung): > 100 µM
- TGI (RXF 393 renal): > 100 µM
- TGI (M14 melanoma): > 100 µM
- TGI (A498 renal): > 100 µM

SMILES: CC(=O)N1C(c2[nH]c3ccccc3c2Cc2ccccc2)CCN1c1ccccc1 (centres undefined)
- TGI (LOX IMVI melanoma): > 10 µM
- TGI (NCI/ADR-RES ovarian): > 10 µM
- TGI (MDA-N): > 10 µM
- TGI (EKVX NSCLC): > 10 µM
- TGI (SK-MEL-2 melanoma): > 10 µM
- TGI (NCI-H226 lung): > 10 µM
- TGI (RXF 393 renal): > 10 µM
- TGI (M14 melanoma): > 10 µM
